Reference: patent US20130338142A1, “IMIDAZOPYRAZINE SYK INHIBITORS” (Gilead Connecticut, Inc., priority 2012, published 2013)

Molecular target: Syk (Homo sapiens, UniProt P43405)
Assay: High throughput Syk assay (TR-FRET, KinEASE)
Format: biochemical
Details: Syk TR-FRET assay of Example B2; 3 μM ATP, 0.5 nM Syk
Procedure: The following high throughput Syk assay was performed on the compounds of Table 1 as follows.
Syk activity was measured by detecting phosphorylated peptide substrate formation using antibody against phosphorylated peptide substrate. This is a time-resolved fluorescence resonance energy transfer (TR-FRET) immunoassay, based on the KinEASE Assay (Cisbio). […] Test compounds (in DMSO) were spotted into 384 well plates using a Labcyte® Echo 550 Liquid Handling System prior to addition of Syk enzyme and peptide substrate. Reaction solutions were delivered using a Multi-Flo (Bio-Tek Instruments). The enzyme and peptide solution was incubated with compound for 60 minutes at room temp before the reaction was initiated by the addition of ATP. […] The europium donor was excited using a 340-nm excitation filter with a 30-nm band pass. Energy transfer to the tracer was measured using a filter centered at 665 nm with a 10 nm bandpass. This signal was then referenced to the emission from europium peak, using a 615 nm, 10-nm bandpass filter. The “emission ratio” was calculated as the 665 nm signal divided by the 615 nm signal. Percentage of inhibition was calculated as below:
% Inhibition=100×(RatioSample−Ratio0% Inhibition)/(Ratio100% Inhibition−Ratio0% Inhibition)

Row | SMILES | IC50 [nM]
1 | c1cn2cc(-c3cnc4c(c3)NCCO4)nc(Nc3cnn(C4CCOCC4)c3)c2n1 [Compound 44, 6-(2,3-dihydro-1H-pyrido[2,3-b][1,4]oxazin-7-yl)-N-(1-(tetrahydro-2H-pyran-4-yl)-1H-pyrazol-4-yl)imidazo[1,2-a]pyrazin-8-amine] | 5
2 | c1cn2cc(-c3ccc4c(c3)CNCCO4)nc(Nc3ccc(N4CCOCC4)cc3)c2n1 [Compound 78, N-(4-morpholinophenyl)-6-(2,3,4,5-tetrahydrobenzo[f][1,4]oxazepin-7-yl)imidazo[1,2-a]pyrazin-8-amine] | 18
3 | COc1cc(Nc2nc(-c3cnc4c(c3)NCCO4)cn3ccnc23)ccc1N1CCC(=NO)CC1 [Compound 105, 1-(4-((6-(2,3-dihydro-1H-pyrido[2,3-b][1,4]oxazin-7-yl)imidazo[1,2-a]pyrazin-8-yl)amino)-2-methoxyphenyl)piperidin-4-one oxime] | 5
4 | COc1cc(Nc2nc(-c3cnc4c(c3)NCCO4)cn3ccnc23)ccc1-n1ccnc1 [Compound 40, N-(4-(1H-imidazol-1-yl)-3-methoxyphenyl)-6-(2,3-dihydro-1H-pyrido[2,3-b][1,4]oxazin-7-yl)imidazo[1,2-a]pyrazin-8-amine] | 21
5 | c1cn2cc(-c3cnc4c(c3)NCCO4)nc(Nc3ccc4c(c3)OC[C@H]3COCCN43)c2n1 [Compound 43, (R)-N-(6-(2,3-dihydro-1H-pyrido[2,3-b][1,4]oxazin-7-yl)imidazo[1,2-a]pyrazin-8-yl)-2,4,4a,5-tetrahydro-1H-benzo[b][1,4]oxazino[4,3-d][1,4]oxazin-8-amine] | 9
6 | COc1cc(Nc2nc(-c3cnc4c(c3)NCCO4)cn3ccnc23)ccc1N1CCOC(C)(C)C1 [Compound 81, 6-(2,3-dihydro-1H-pyrido[2,3-b][1,4]oxazin-7-yl)-N-(4-(2,2-dimethylmorpholino)-3-methoxyphenyl)imidazo[1,2-a]pyrazin-8-amine] | 14
7 | COc1cc(Nc2nc(-c3cnc4c(c3)NCCO4)cn3ccnc23)ccc1N1CCC[C@](C)(O)C1 [Compound 52, (S)-1-(4-((6-(2,3-dihydro-1H-pyrido[2,3-b][1,4]oxazin-7-yl)imidazo[1,2-a]pyrazin-8-yl)amino)-2-methoxyphenyl)-3-methylpiperidin-3-ol] | 7
8 | COc1cc(Nc2nc(-c3ccc4c(c3)C(=O)NCCO4)cn3ccnc23)ccc1N1CCN(C2COC2)CC1 [Compound 55, 7-(8-((3-methoxy-4-(4-(oxetan-3-yl)piperazin-1-yl)phenyl)amino)imidazo[1,2-a]pyrazin-6-yl)-3,4-dihydrobenzo[f][1,4]oxazepin-5(2H)-one] | 8
9 | COc1cc(Nc2nc(-c3cnc4c(c3)NCCO4)cn3ccnc23)ccc1N1CCC(=O)CC1 [Compound 104, 1-(4-((6-(2,3-dihydro-1H-pyrido[2,3-b][1,4]oxazin-7-yl)imidazo[1,2-a]pyrazin-8-yl)amino)-2-methoxyphenyl)piperidin-4-one] | 4
10 | COc1cc(Nc2nc(-c3ccc4c(c3)C(=O)NCCO4)cn3ccnc23)ccc1N1CCOCC1 [Compound 2, 7-(8-((3-methoxy-4-morpholinophenyl)amino)imidazo [1,2-a]pyrazin-6-yl)-3,4-dihydrobenzo[f][1,4]oxazepin-5(2H)-one] | 6
11 | CON=C1CCN(c2ccc(Nc3nc(-c4cnc5c(c4)NCCO5)cn4ccnc34)cc2OC)CC1 [Compound 106, 1-(4-((6-(2,3-dihydro-1H-pyrido[2,3-b][1,4]oxazin-7-yl)imidazo[1,2-a]pyrazin-8-yl)amino)-2-methoxyphenyl)piperidin-4-one O-methyl oxime] | 6
12 | COc1cc(Nc2nc(-c3cnc4c(c3)NCCO4)cn3ccnc23)ccc1OC1CCC1 [Compound 29, N-(4-cyclobutoxy-3-methoxyphenyl)-6-(2,3-dihydro-1H-pyrido[2,3-b][1,4]oxazin-7-yl)imidazo[1,2-a]pyrazin-8-amine] | 7
13 | COc1cc(Nc2nc(-c3cnc4c(c3)NCCS4)cn3ccnc23)ccc1N1CCOCC1 [Compound 58, 6-(2,3-dihydro-1H-pyrido[2,3-b][1,4]thiazin-7-yl)-N-(3-methoxy-4-morpholinophenyl)imidazo[1,2-a]pyrazin-8-amine] | 2
14 | COc1cc(Nc2nc(-c3ccc4c(c3)OCCN4)cn3ccnc23)ccc1N1CCN(C2COC2)CC1 [Compound 6, 6-(3,4-dihydro-2H-benzo[b][1,4]oxazin-7-yl)-N-(3-methoxy-4-(4-(oxetan-3-yl)piperazin-1-yl)phenyl)imidazo[1,2-a]pyrazin-8-amine] | 7

Now from value to compound:

Row | IC50 [nM] | SMILES
15 | 7 | c1cn2cc(-c3cnc4c(c3)NCCO4)nc(Nc3ccc(C4CCOCC4)cc3)c2n1 [Compound 39, 6-(2,3-dihydro-1H-pyrido[2,3-b][1,4]oxazin-7-yl)-N-(4-(tetrahydro-2H-pyran-4-yl)phenyl)imidazo[1,2-a]pyrazin-8-amine]
16 | 33 | COc1cc(Nc2nc(-c3cnc4c(c3)NCCO4)cn3ccnc23)ccc1N1CC(C)(O)C1 [Compound 98, 1-(4-((6-(2,3-dihydro-1H-pyrido[2,3-b][1,4]oxazin-7-yl)imidazo[1,2-a]pyrazin-8-yl)amino)-2-methoxyphenyl)-3-methylazetidin-3-ol]
17 | 17 | CO/N=C(\C)c1ccc(Nc2nc(-c3cnc4c(c3)NCCO4)cn3ccnc23)cc1 [Compound 107, (E)-1-(4-((6-(2,3-dihydro-1H-pyrido[2,3-b][1,4]oxazin-7-yl)imidazo[1,2-a]pyrazin-8-yl)amino)phenyl)ethanone O-methyl oxime]
18 | 4 | CC(=O)N1CCN(c2ccc(Nc3nc(-c4cnc5c(c4)NCCO5)cn4ccnc34)cc2)CC1 [Compound 34]
19 | 8 | OC1(c2ccc(Nc3nc(-c4cnc5c(c4)NCCO5)cn4ccnc34)cc2)COC1 [Compound 102, 3-(4-((6-(2,3-dihydro-1H-pyrido[2,3-b][1,4]oxazin-7-yl)imidazo[1,2-a]pyrazin-8-yl)amino)phenyl)oxetan-3-ol]
20 | 2 | COc1cc(Nc2nc(-c3cnc4c(c3)NCCO4)cn3ccnc23)ccc1N(C)C [Compound 35, N4-(6-(2,3-dihydro-1H-pyrido[2,3-b][1,4]oxazin-7-yl)imidazo[1,2-a]pyrazin-8-yl)-2-methoxy-N1,N1-dimethylbenzene-1,4-diamine]
21 | 9 | CN(C)C[C@@H]1CN(c2ccc(Nc3nc(-c4cnc5c(c4)NCCO5)cn4ccnc34)cc2)CCO1 [Compound 61, (R)-6-(2,3-dihydro-1H-pyrido[2,3-b][1,4]oxazin-7-yl)-N-(4-(2-((dimethylamino)methyl)morpholino)phenyl)imidazo[1,2-a]pyrazin-8-amine]
22 | 7 | CO/N=C(/C)c1ccc(Nc2nc(-c3cnc4c(c3)NCCO4)cn3ccnc23)cc1 [Compound 108, (Z)-1-(4-((6-(2,3-dihydro-1H-pyrido[2,3-b][1,4]oxazin-7-yl)imidazo[1,2-a]pyrazin-8-yl)amino)phenyl)ethanone O-methyl oxime]
23 | 3 | c1cn2cc(-c3cnc4c(c3)NCCO4)nc(Nc3ccc(N4CCN5CCOC[C@@H]5C4)cc3)c2n1 [Compound 82, (S)-6-(2,3-dihydro-1H-pyrido[2,3-b][1,4]oxazin-7-yl)-N-(4-(hexahydropyrazino[2,1-c][1,4]oxazin-8(1H)-yl)phenyl)imidazo[1,2-a]pyrazin-8-amine]
